Assay results as given in patent publication US20240409519A1, “HYDROGENATED QUINOXALINES” (OTSUKA PHARMACEUTICAL CO., LTD., priority 2021, published 2024).

Columns and labels:
[1] = biological target: T1, norepinephrine (NE) uptake (Rattus norvegicus, UniProt Q63380); assay: Norepinephrine (NE) uptake inhibitory activity using rat brain synaptosome; type: biochemical; conditions: rat hippocampus synaptosome, tritium-labeled NE 12 nM; read-out: IC50 (nM), norepinephrine (NE) uptake inhibition
T1 construct: used as crude synaptosomal fraction; from tissue; host or cells: rat hippocampus, crude synaptosomal fraction
Description: (§1) Male Wistar rats were decapitated, each brain was removed, and the hippocampus was cut out. […] The homogenate was centrifuged at 1000 g at 4° C. for 10 minutes, and the supernatant was further centrifuged at 20000 g at 4° C. for 20 minutes. The pellet was suspended in an incubation buffer (20 mM Hepes buffer (pH 7.4) containing 10 mM glucose, 145 mM sodium chloride, 4.5 mM potassium chloride, 1.2 mM magnesium chloride and 1.5 mM calcium chloride) and used as crude synaptosomal fraction.
Each well of a 96-well round-bottom plate was used for the uptake reaction in a total volume of 200 μL solution containing purgurin (final concentration 10 μM) and ascorbic acid (final concentration 0.2 mg/mL).
After 10 minutes, the uptake reaction was terminated by suction filtration onto a 96-well glass fiber filter plate. The filters were rinsed with cold physi-ological saline solution, dried thoroughly, and micro scintillation 0 (Perkin-Elmer) was added thereto. Then, the residual radioactivity on the filters was measured.
The uptake value when only solvent was added was set as 100%, the uptake value when unlabeled NE (final concentration 10 μM) was added as 0% (nonspecific uptake value), and the 50% inhibitory concentration was calculated from the concentration of the test compound and its inhibitory activity.

[2] = Protein binding rate test (human serum, equilibrium dialysis); type: in vitro ADME; conditions: test compound 0.001 mmol/L, equilibrium dialysis 37° C. 6 hours
Description: A serum sample was prepared by adding a test compound solution to a human serum (final concentration of the test compound: 0.001 mmol/L). The serum sample and Dulbecco's Phosphate-Buffered Saline (D-PBS(−)) were added to the wells separated by a dialysis membrane to start the reaction. A solution of the internal standard in methanol was prepared and used as a quenching solution.
Specifically, the dialysis membrane (cut-off molecular weight 12000-14000) was pre-conditioned by immersing it in distilled water, followed by 20% ethanol. Then, the membrane was washed with D-PBS(−) and set in an equilibrium dialysis kit. Then, 150 μL of D-PBS(−) was added to one part of each well divided by the dialysis membrane, and 150 μL of serum sample was added to the other part. After sealing all wells and incubation at 37° C. for 6 hours, 30 μL from the serum side and 90 μL from the PBS side of each well were collected and mixed with 90 μL of D-PBS(−) or 30 μL of blank serum and 480 μL of a quenching solution to quench the reaction.
The mixture was centrifuged (6130 g, 4° C., 10 minutes) and the supernatant was used as a sample for LC-MS/MS.
Peak area ratio ([peak area of test compound]/[peak area of internal standard]) was calculated for the test compound and the internal standard. By comparing the peak area ratio of the PBS side for each test compound with that of the serum side, the protein binding rate (%) of each test compound was calculated from (1-[peak area ratio of PBS side]/[peak area ratio of serum side])×100.

dopamine (DA) uptake = biological target: T2, dopamine (DA) uptake (Rattus norvegicus, UniProt P23977); assay: Dopamine (DA) uptake inhibitory activity using rat brain synaptosome; type: biochemical; conditions: rat striatum synaptosome, tritium-labeled DA 2 nM; read-out: IC50 (nM), dopamine (DA) uptake inhibition
T2 construct: used as crude synaptosomal fraction; from tissue; host or cells: rat striatum, crude synaptosomal fraction
Description: as §1, with “striatum” for “hippocampus”
Each well of a 96-well round-bottom plate was used for the uptake reaction in a total volume of 200 μl solution containing purgurin (final concentration 10 μM) and ascorbic acid (final concentration 0.2 mg/mL). In other words, solvent, unlabeled DA or step-diluted test compound was added to each well, and one-tenth of the final volume of the synaptosomal fraction was added to each well, followed by pre-incubation at 37° C. for 10 minutes, and then tritium-labeled DA solution (final concentration 2 nM) was added and the uptake reaction was initiated at 37° C. After 10 minutes, the uptake reaction was terminated by suction filtration onto a 96-well glass fiber filter plate. The filters were rinsed with cold physi-ological saline solution, dried thoroughly, and micro scintillation 0 (Perkin-Elmer) was added thereto. Then, the residual radioactivity on the filters was measured.
The uptake value when only solvent was added was set as 100%, the uptake value when unlabeled DA (final concentration 10 μM) was added as 0% (nonspecific uptake value), and the 50% inhibitory concentration was calculated from the concentration of the test compound and its inhibitory activity.

CYP3A4 = biological target: T3, CYP3A4 (Homo sapiens, UniProt P08684); assay: CYP inhibition test (1): inhibition rate (%) at one concentration, CYP3A4; type: in vitro ADME; conditions: human liver microsomes, pH 7.4, probe midazolam (0.005 mmol/L); test compound 0.01 mmol/L, human liver microsome 0.1 mg/mL, substrate midazolam, 37° C. 10 minutes; read-out: inhibition rate (%) 3A4
T3 construct: a human liver microsome solution containing three CYP-specific substrates; from tissue; host or cells: human liver microsomes
Description: A metabolic reaction was initiated by adding and mixing a test compound solution (final concentration 0.01 mmol/L) and a NADH/NADPH solution (final concentration 1 mmol/L) to a human liver microsome solution containing three CYP-specific substrates (final concentration 100 mmol/L potassium phosphate buffer solution (pH 7.4), 5 mmol/L magnesium chloride, 0.1 mg/mL human liver microsome, 0.005 mmol/L diclofenac (for CYP2C9), 0.01 mmol/L bufuralol (for […]), 0.005 mmol/L midazolam (for CYP3A4)). As an internal standard solution, a solution of each of stable isotopes of the metabolites (50 ng/mL [13C6] hydroxy diclofenac, 5 ng/mL [2H9] hydroxy bufuralol, and 5 ng/mL [13C6] hydroxy midazolam (all stable isotopes)) in methanol was prepared and used as a quenching solution.
Specifically, a metabolic reaction was initiated by adding and mixing 2 μL of a solution of a test compound in acetonitrile (or acetonitrile as a control) to 178 μL of a human liver microsome solution in ice water, followed by preincubation at 37° C. for 1 minute, and then adding 20 μL of a NADH/NADPH solution thereto. After incubation at 37° C. for 10 minutes, 50 μL of the reaction mixture was taken, and then it was added and mixed to 500 μL of a quenching solution to quech the reaction. The mixture was centrifuged (6130 g, 4° C., 10 minutes) and the supernatant was used as a sample for LC-MS/MS.
Peak area ratio ([peak area of metabolite]/[peak area of corresponding stable isotope]) was calculated for a metabolite and a stable isotope of the metabolite as measurement object. By comparing the peak area ratio of each test compound solution with that of the control, the inhibition rate (%) of each CYP species for each test compound was calculated from (1-[peak area ratio of each test compound solution]/[peak area ratio of control])×100.

T1 sequence (Q63380 1-617): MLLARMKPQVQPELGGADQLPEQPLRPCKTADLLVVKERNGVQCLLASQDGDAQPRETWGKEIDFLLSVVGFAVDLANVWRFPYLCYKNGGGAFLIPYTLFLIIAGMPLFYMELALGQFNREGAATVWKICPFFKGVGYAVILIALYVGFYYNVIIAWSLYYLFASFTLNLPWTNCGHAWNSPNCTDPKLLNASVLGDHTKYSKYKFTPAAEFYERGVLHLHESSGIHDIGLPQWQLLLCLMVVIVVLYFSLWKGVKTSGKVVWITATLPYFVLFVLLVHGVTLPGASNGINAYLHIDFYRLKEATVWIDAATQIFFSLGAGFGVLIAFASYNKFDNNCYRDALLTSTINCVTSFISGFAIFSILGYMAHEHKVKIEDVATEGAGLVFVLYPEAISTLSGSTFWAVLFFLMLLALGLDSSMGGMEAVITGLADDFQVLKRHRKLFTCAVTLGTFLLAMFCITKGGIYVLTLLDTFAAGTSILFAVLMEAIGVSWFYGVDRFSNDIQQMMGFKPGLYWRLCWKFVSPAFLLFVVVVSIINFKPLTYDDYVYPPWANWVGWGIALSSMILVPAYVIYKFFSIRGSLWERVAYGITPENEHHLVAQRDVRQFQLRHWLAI
T2 sequence (P23977 whole entry): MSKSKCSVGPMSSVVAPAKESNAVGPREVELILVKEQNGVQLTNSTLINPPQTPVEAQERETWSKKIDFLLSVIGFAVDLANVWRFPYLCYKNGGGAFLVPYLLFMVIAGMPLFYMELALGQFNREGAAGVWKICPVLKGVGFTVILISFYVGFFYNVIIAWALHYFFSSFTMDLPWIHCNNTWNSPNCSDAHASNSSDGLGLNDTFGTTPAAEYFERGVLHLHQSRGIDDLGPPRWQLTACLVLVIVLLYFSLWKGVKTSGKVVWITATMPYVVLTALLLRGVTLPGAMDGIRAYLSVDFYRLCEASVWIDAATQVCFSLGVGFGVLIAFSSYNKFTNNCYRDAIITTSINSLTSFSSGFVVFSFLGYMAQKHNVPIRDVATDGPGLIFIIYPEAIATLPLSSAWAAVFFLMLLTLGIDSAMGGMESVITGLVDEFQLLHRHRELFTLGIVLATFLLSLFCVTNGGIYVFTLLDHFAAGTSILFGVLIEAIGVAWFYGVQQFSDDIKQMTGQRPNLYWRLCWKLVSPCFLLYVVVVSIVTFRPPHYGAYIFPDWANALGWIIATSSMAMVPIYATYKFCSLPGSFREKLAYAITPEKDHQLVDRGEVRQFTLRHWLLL
T3 sequence (P08684 whole entry): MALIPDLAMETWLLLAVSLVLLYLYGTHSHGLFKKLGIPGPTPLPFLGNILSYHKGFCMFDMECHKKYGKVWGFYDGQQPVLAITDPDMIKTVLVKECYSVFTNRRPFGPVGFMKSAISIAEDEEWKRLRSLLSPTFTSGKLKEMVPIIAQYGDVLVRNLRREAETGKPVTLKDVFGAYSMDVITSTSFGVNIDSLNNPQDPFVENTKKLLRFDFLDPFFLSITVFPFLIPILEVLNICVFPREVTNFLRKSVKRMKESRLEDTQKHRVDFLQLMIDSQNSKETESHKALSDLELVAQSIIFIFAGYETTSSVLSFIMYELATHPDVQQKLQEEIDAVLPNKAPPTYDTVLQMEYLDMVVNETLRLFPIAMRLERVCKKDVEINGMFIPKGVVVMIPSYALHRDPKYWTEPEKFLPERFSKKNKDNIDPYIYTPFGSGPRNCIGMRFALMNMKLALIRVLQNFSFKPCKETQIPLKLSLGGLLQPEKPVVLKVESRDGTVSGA

Compound | IC50 [1] [nM] | fraction unbound at 6 h, 0.001 mmol/L [2] | IC50 (dopamine (DA) uptake) [nM] | inhibition at 10 min, 0.01 mmol/L (CYP3A4) [%]
Cc1c(N2CC(C)(C)N[C@@H]3CCCC[C@@H]32)ccc(OC(F)(F)CO)c1F [Example 57] | 4.9 | 0.294 | 88 | 8.6
Cc1cc(N2CC(C)(C)N[C@@H]3CCCC[C@@H]32)cc(F)c1OC(F)(F)CO [Example 58] | 6.4 | 0.358 | 58.4 | 13.1
CC1(C)CN(c2ccc(OC(F)(F)CO)cc2F)[C@H]2CCCC[C@H]2N1 [Example 61, 2-(4-((4aR,8aS)-3,3-dimethyloctahydroquinoxalin-1(2H)-yl)-3-fluorophenoxy)-2,2-difluoroethan-1-ol 1/2fumarate] | 6.1 | 0.337 | 60.2 | -2.7
CC1(C)CN(c2cc(Br)c(OCCO)cc2F)[C@H]2CCCC[C@H]2N1 [Example 62] | 6.9 | 0.404 | 273 | -1.6
CC1(C)CN(c2ccc(OCCO)c(Br)c2F)[C@H]2CCCC[C@H]2N1 [Example 63] | 3.6 | 0.261 | 85.1 | 6.1
CC1(C)CN(c2ccc(OCCO)cc2Cl)[C@H]2CCCC[C@H]2N1 [Example 64, 2-(3-chloro-4-((4aR,8aS)-3,3-dimethyloctahydroquinoxalin-1(2H)-yl)phenoxy)ethan-1-ol 1/2fumarate] | 5.4 | 0.499 | 78.9 | 3.9
Cc1c(OC(F)(F)CO)ccc(N2CC(C)(C)N[C@H]3CCCC[C@H]32)c1F [Example 69, 2-(4-((4aS,8aR)-3,3-dimethyloctahydroquinoxalin-1(2H)-yl)-3-fluoro-2-methylphenoxy)-2,2-difluoroethan-1-ol 1/2fumarate] | 3.4 | 0.211 | 91.4 | 19.7
Cc1c(OC(F)(F)CO)ccc(N2CC(C)(C)N[C@@H]3CCCC[C@@H]32)c1F [Example 70] | 1 | 0.195 | 44.5 | 17.6
CC1(C)CN(c2cc(F)c(OC(F)(F)CO)cc2F)[C@H]2CCCC[C@H]2N1 [Example 71] | 6.3 | 0.285 | 81.4 | -3.4
CC1(C)CN(c2cc(F)c(OCCO)cc2F)[C@H]2CCCC[C@H]2N1 [Example 72] | 7.9 | 0.766 | 241 | -2.4
CC1(C)CN(c2ccc(OC(F)(F)CO)c(F)c2F)[C@H]2CCCC[C@H]2N1 [Example 73] | 2.4 | 0.267 | 68.7 | 5.9
CC1(C)CN(c2cc(Cl)c(OC(F)(F)CO)cc2F)[C@H]2CCCC[C@@H]2N1 [Example 75] | 9.7 | 0.277 | 35.3 | 9.9
CC1(C)CN(c2cc(Cl)c(OC(F)(F)CO)cc2F)[C@@H]2CCCC[C@H]2N1 [Example 76] | 8.8 | 0.308 | 60.5 | 12.4
CC1(C)CN(c2cc(F)c(OC(F)(F)CO)cc2F)[C@H]2CCCC[C@@H]2N1 [Example 77] | 7.1 | 0.411 | 205 | -1.9
Cc1c(OC(F)(F)CO)ccc(N2CC(C)(C)N[C@H]3CCCC[C@@H]32)c1F [Example 79] | 5.8 | 0.289 | 224 | 17.1
CC1(C)CN(c2ccc(OC(F)(F)CO)c(Cl)c2F)[C@@H]2CCCC[C@H]2N1 [Example 80] | 12.4 | 0.21 | 90 | 17.6
